# According to US11001590B2, “Pyrazolopyrimidine derivatives” (BAYER ANIMAL HEALTH GMBH, priority 2016, dated 2021):
# Test system: Nippostrongylus brasiliensis
# Experiment: In vitro assay 2: Nippostrongylus brasiliensis (NIPOBR), acetylcholine esterase readout
# Conditions: adult worms, 1 μg/ml (1 ppm), read-out: activity (reduction of AChE compared to negative control)
# Description: In Vitro Assay 2: Nippostronqylus Brasiliensis (NIPOBR)
# Adult Nippostrongylus brasiliensis were washed with saline buffer containing 100 U/ml penicillin, 0.1 mg/ml streptomycin and 2.5 μg/ml amphotericin B. Test compounds were dissolved in DMSO and worms were incubated in medium in a final concentration of 10 μg/ml (10 ppm) respectively 1 μg/ml (1 ppm). An aliquot of the medium was used to determine the acetylcholine esterase activity in comparison to a negative control. The principle of measuring acetylcholine esterase as readout for anthelmintic activity was described in Rapson et al (1986) and Rapson et al (1987).
row,SMILES,inhibition at 1 µg/mL [%]
1,Cc1nn2c(C(C)C)c(C(=O)N[C@H]3CCOc4ccccc43)cnc2c1-c1c(F)cc(F)cc1F [Example 236],> 80
2,Cc1nn2c(N3CCOCC3)c(C(=O)N[C@H]3CCOc4ccccc43)cnc2c1-c1cc(Cl)cc(Cl)c1 [Example 516],> 80
3,Cc1nn2c(C3CC3)c(C(=O)N[C@H]3CCOc4ccccc43)cnc2c1-c1cc(Cl)cc(Cl)c1Cl [Example 538],> 80
4,Cc1nn2c(C(C)C)c(C(=O)N[C@H]3CCOc4ccccc43)cnc2c1-c1c(F)cc(Cl)cc1F [Example 246],> 80
5,Cc1nn2c(C3CC3)c(C(=O)N[C@H]3CCOc4ccccc43)cnc2c1-c1ccc(F)cc1Cl [Example 475],> 80
6,COc1cc(-c2c(C)nn3c(C(C)C)c(C(=O)N[C@H]4CCOc5ccccc54)cnc23)cc(F)c1F [Example 241],> 80
7,Cc1nn2c(C(C)C)c(C(=O)N[C@H]3CCOc4ccccc43)cnc2c1-c1ncc(Cl)cc1Cl [Example 208],> 80
8,COc1c(F)ccc(-c2c(C)nn3c(N4CCOCC4)c(C(=O)N[C@H]4CCOc5ccccc54)cnc23)c1F [Example 533],> 80
9,Cc1nn2c(C(C)C)c(C(=O)N[C@H]3CCOc4ccccc43)cnc2c1-c1ccc(F)c2c1OCO2 [Example 263],> 80
10,Cc1nn2c(C(C)C)c(C(=O)N[C@H]3CCc4ccccc43)cnc2c1-c1ncc(Cl)cc1Cl [Example 209],> 80

# Same assay, conditions: adult worms, 10 μg/ml (10 ppm), read-out: activity (reduction of AChE compared to negative control)
row,SMILES,inhibition at 10 µg/mL [%]
1,Cc1nn2c(C(C)C)c(C(=O)N[C@H]3CCOc4ccccc43)cnc2c1-c1c(F)cc(F)cc1F [Example 236],> 80
2,Cc1nn2c(N3CCOCC3)c(C(=O)N[C@H]3CCOc4ccccc43)cnc2c1-c1cc(Cl)cc(Cl)c1 [Example 516],> 80
3,Cc1nn2c(C(C)C)c(C(=O)N[C@H]3CCOc4ccccc43)cnc2c1-c1c(F)cccc1F [Example 96],> 80
4,Cc1nn2c(C(C)C)c(C(=O)N[C@H]3CCCc4ccccc43)cnc2c1-c1cc(Cl)c(F)c(Cl)c1 [Example 128],> 80
5,Cc1nn2c(C(C)C)c(C(=O)N[C@H]3CCOc4ccccc43)cnc2c1-c1ccc(F)c(F)c1F [Example 166],> 80
6,Cc1nn2c(C(C)C)c(C(=O)N[C@H]3CCOc4ccccc43)cnc2c1-c1c(F)cc(Cl)cc1F [Example 246],> 80
7,COc1cc(-c2c(C)nn3c(C(C)C)c(C(=O)N[C@H]4CCOc5ccccc54)cnc23)cc(F)c1F [Example 241],> 80
8,Cc1nn2c(C(C)C)c(C(=O)N[C@H]3CCOc4ccccc43)cnc2c1-c1ncc(Cl)cc1Cl [Example 208],> 80
9,Cc1nn2c(C(C)C)c(C(=O)N[C@H]3CCOc4ccccc43)cnc2c1-c1ccc(F)c2c1OCO2 [Example 263],> 80
10,Cc1nn2c(C(C)C)c(C(=O)N[C@H]3CCc4ccccc43)cnc2c1-c1ncc(Cl)cc1Cl [Example 209],> 80

# Test system: Dirofilaria immitis microfilariae
# Experiment: In vitro assay 3: Dirofilaria immitis microfilariae (DIROIM L1), motility
# Conditions: 72 h, reduction of motility vs negative control, 72 h incubation
row,SMILES,EC50 [µg/mL]
1,Cc1nn2c(C(C)C)c(C(=O)N[C@H]3CCOc4ccccc43)cnc2c1-c1c(F)cc(F)cc1F [Example 236],< 1
2,Cc1nn2c(N3CCOCC3)c(C(=O)N[C@H]3CCOc4ccccc43)cnc2c1-c1cc(Cl)cc(Cl)c1 [Example 516],< 0.1
3,Cc1nn2c(C(C)C)c(C(=O)N[C@H]3CCOc4ccccc43)cnc2c1-c1c(F)cccc1F [Example 96],< 0.1
4,Cc1nn2c(C(C)C)c(C(=O)N[C@H]3CCCc4ccccc43)cnc2c1-c1cc(Cl)c(F)c(Cl)c1 [Example 128],< 0.1
5,Cc1nn2c(C3CC3)c(C(=O)N[C@H]3CCOc4ccccc43)cnc2c1-c1cc(Cl)cc(Cl)c1Cl [Example 538],< 0.1
6,Cc1nn2c(C(C)C)c(C(=O)N[C@H]3CCOc4ccccc43)cnc2c1-c1ccc(F)c(F)c1F [Example 166],< 0.1
7,Cc1nn2c(C(C)C)c(C(=O)N[C@H]3CCOc4ccccc43)cnc2c1-c1c(F)cc(Cl)cc1F [Example 246],< 0.1
8,Cc1nn2c(C3CC3)c(C(=O)N[C@H]3CCOc4ccccc43)cnc2c1-c1ccc(F)cc1Cl [Example 475],< 0.1
9,COc1cc(-c2c(C)nn3c(C(C)C)c(C(=O)N[C@H]4CCOc5ccccc54)cnc23)cc(F)c1F [Example 241],< 1
10,Cc1nn2c(C(C)C)c(C(=O)N[C@H]3CCOc4ccccc43)cnc2c1-c1ncc(Cl)cc1Cl [Example 208],< 0.1
11,COc1c(F)ccc(-c2c(C)nn3c(N4CCOCC4)c(C(=O)N[C@H]4CCOc5ccccc54)cnc23)c1F [Example 533],< 0.1
12,Cc1nn2c(C(C)C)c(C(=O)N[C@H]3CCOc4ccccc43)cnc2c1-c1ccc(F)c2c1OCO2 [Example 263],< 0.1
13,Cc1nn2c(C(C)C)c(C(=O)N[C@H]3CCc4ccccc43)cnc2c1-c1ncc(Cl)cc1Cl [Example 209],< 0.1

# Test system: Dirofilaria immitis third-stage larvae
# Experiment: In vitro assay 4: Dirofilaria immitis (DIROIM L4), motility of larvae
# Conditions: 72 h
row,SMILES,EC50 [µg/mL]
1,Cc1nn2c(C(C)C)c(C(=O)N[C@H]3CCOc4ccccc43)cnc2c1-c1c(F)cc(F)cc1F [Example 236],< 0.1
2,Cc1nn2c(N3CCOCC3)c(C(=O)N[C@H]3CCOc4ccccc43)cnc2c1-c1cc(Cl)cc(Cl)c1 [Example 516],< 0.1
3,Cc1nn2c(C(C)C)c(C(=O)N[C@H]3CCOc4ccccc43)cnc2c1-c1c(F)cccc1F [Example 96],< 0.1
4,Cc1nn2c(C(C)C)c(C(=O)N[C@H]3CCCc4ccccc43)cnc2c1-c1cc(Cl)c(F)c(Cl)c1 [Example 128],< 0.1
5,Cc1nn2c(C3CC3)c(C(=O)N[C@H]3CCOc4ccccc43)cnc2c1-c1cc(Cl)cc(Cl)c1Cl [Example 538],< 0.1
6,Cc1nn2c(C(C)C)c(C(=O)N[C@H]3CCOc4ccccc43)cnc2c1-c1ccc(F)c(F)c1F [Example 166],< 0.1
7,Cc1nn2c(C(C)C)c(C(=O)N[C@H]3CCOc4ccccc43)cnc2c1-c1c(F)cc(Cl)cc1F [Example 246],< 0.1
8,Cc1nn2c(C3CC3)c(C(=O)N[C@H]3CCOc4ccccc43)cnc2c1-c1ccc(F)cc1Cl [Example 475],< 0.1
9,COc1cc(-c2c(C)nn3c(C(C)C)c(C(=O)N[C@H]4CCOc5ccccc54)cnc23)cc(F)c1F [Example 241],< 0.1
10,Cc1nn2c(C(C)C)c(C(=O)N[C@H]3CCOc4ccccc43)cnc2c1-c1ncc(Cl)cc1Cl [Example 208],< 0.1
11,COc1c(F)ccc(-c2c(C)nn3c(N4CCOCC4)c(C(=O)N[C@H]4CCOc5ccccc54)cnc23)c1F [Example 533],< 0.1
12,Cc1nn2c(C(C)C)c(C(=O)N[C@H]3CCOc4ccccc43)cnc2c1-c1ccc(F)c2c1OCO2 [Example 263],< 0.1
13,Cc1nn2c(C(C)C)c(C(=O)N[C@H]3CCc4ccccc43)cnc2c1-c1ncc(Cl)cc1Cl [Example 209],< 0.1

# Test system: Litomosoides sigmodontis third-stage larvae
# Experiment: In vitro assay 7: Litomosoides sigmodontis L3 (LTMOSI), motility
# Conditions: 72 h, reduction of motility vs negative control, 72 h incubation
row,SMILES,EC50 [µg/mL]
1,Cc1nn2c(C(C)C)c(C(=O)N[C@H]3CCOc4ccccc43)cnc2c1-c1c(F)cc(F)cc1F [Example 236],< 0.1
2,Cc1nn2c(C(C)C)c(C(=O)N[C@H]3CCOc4ccccc43)cnc2c1-c1c(F)cccc1F [Example 96],< 0.1
3,Cc1nn2c(C(C)C)c(C(=O)N[C@H]3CCCc4ccccc43)cnc2c1-c1cc(Cl)c(F)c(Cl)c1 [Example 128],< 0.1
4,Cc1nn2c(C3CC3)c(C(=O)N[C@H]3CCOc4ccccc43)cnc2c1-c1cc(Cl)cc(Cl)c1Cl [Example 538],< 0.1
5,Cc1nn2c(C(C)C)c(C(=O)N[C@H]3CCOc4ccccc43)cnc2c1-c1ccc(F)c(F)c1F [Example 166],< 0.1
6,Cc1nn2c(C(C)C)c(C(=O)N[C@H]3CCOc4ccccc43)cnc2c1-c1c(F)cc(Cl)cc1F [Example 246],< 0.1
7,Cc1nn2c(C3CC3)c(C(=O)N[C@H]3CCOc4ccccc43)cnc2c1-c1ccc(F)cc1Cl [Example 475],< 0.1
8,COc1cc(-c2c(C)nn3c(C(C)C)c(C(=O)N[C@H]4CCOc5ccccc54)cnc23)cc(F)c1F [Example 241],< 0.1
9,Cc1nn2c(C(C)C)c(C(=O)N[C@H]3CCOc4ccccc43)cnc2c1-c1ncc(Cl)cc1Cl [Example 208],< 0.1
10,COc1c(F)ccc(-c2c(C)nn3c(N4CCOCC4)c(C(=O)N[C@H]4CCOc5ccccc54)cnc23)c1F [Example 533],< 0.1

# Test system: not listed separately
# Experiment: log P by HPLC on reversed phase columns (Method L0; [a] acidic, [b] neutral range)
# Conditions: not given
row,SMILES,chromatographic logP
1,Cc1nn2c(C(C)C)c(C(=O)N[C@H]3CCOc4ccccc43)cnc2c1-c1c(F)cc(F)cc1F [Example 236],4.3
2,Cc1nn2c(N3CCOCC3)c(C(=O)N[C@H]3CCOc4ccccc43)cnc2c1-c1cc(Cl)cc(Cl)c1 [Example 516],3.99
3,Cc1nn2c(C(C)C)c(C(=O)N[C@H]3CCOc4ccccc43)cnc2c1-c1c(F)cccc1F [Example 96],4.13
4,Cc1nn2c(C(C)C)c(C(=O)N[C@H]3CCCc4ccccc43)cnc2c1-c1cc(Cl)c(F)c(Cl)c1 [Example 128],6.26
5,Cc1nn2c(C3CC3)c(C(=O)N[C@H]3CCOc4ccccc43)cnc2c1-c1cc(Cl)cc(Cl)c1Cl [Example 538],4.8
6,Cc1nn2c(C(C)C)c(C(=O)N[C@H]3CCOc4ccccc43)cnc2c1-c1ccc(F)c(F)c1F [Example 166],4.54
7,Cc1nn2c(C(C)C)c(C(=O)N[C@H]3CCOc4ccccc43)cnc2c1-c1c(F)cc(Cl)cc1F [Example 246],4.82
8,Cc1nn2c(C3CC3)c(C(=O)N[C@H]3CCOc4ccccc43)cnc2c1-c1ccc(F)cc1Cl [Example 475],3.79
9,COc1cc(-c2c(C)nn3c(C(C)C)c(C(=O)N[C@H]4CCOc5ccccc54)cnc23)cc(F)c1F [Example 241],4.6
10,Cc1nn2c(C(C)C)c(C(=O)N[C@H]3CCOc4ccccc43)cnc2c1-c1ncc(Cl)cc1Cl [Example 208],4.27
11,COc1c(F)ccc(-c2c(C)nn3c(N4CCOCC4)c(C(=O)N[C@H]4CCOc5ccccc54)cnc23)c1F [Example 533],4.46
12,Cc1nn2c(C(C)C)c(C(=O)N[C@H]3CCOc4ccccc43)cnc2c1-c1ccc(F)c2c1OCO2 [Example 263],4.13
13,Cc1nn2c(C(C)C)c(C(=O)N[C@H]3CCc4ccccc43)cnc2c1-c1ncc(Cl)cc1Cl [Example 209],4.51

# Target: C. elegans Slo-1a (Caenorhabditis elegans, UniProt Q95V25)
# Experiment: In vitro assay 1: C. elegans Slo-1a, action at a recombinant C. elegans CHO cell line (membrane potential measurement)
# Conditions: not given
# C. elegans Slo-1a, sequence (Q95V25 whole entry): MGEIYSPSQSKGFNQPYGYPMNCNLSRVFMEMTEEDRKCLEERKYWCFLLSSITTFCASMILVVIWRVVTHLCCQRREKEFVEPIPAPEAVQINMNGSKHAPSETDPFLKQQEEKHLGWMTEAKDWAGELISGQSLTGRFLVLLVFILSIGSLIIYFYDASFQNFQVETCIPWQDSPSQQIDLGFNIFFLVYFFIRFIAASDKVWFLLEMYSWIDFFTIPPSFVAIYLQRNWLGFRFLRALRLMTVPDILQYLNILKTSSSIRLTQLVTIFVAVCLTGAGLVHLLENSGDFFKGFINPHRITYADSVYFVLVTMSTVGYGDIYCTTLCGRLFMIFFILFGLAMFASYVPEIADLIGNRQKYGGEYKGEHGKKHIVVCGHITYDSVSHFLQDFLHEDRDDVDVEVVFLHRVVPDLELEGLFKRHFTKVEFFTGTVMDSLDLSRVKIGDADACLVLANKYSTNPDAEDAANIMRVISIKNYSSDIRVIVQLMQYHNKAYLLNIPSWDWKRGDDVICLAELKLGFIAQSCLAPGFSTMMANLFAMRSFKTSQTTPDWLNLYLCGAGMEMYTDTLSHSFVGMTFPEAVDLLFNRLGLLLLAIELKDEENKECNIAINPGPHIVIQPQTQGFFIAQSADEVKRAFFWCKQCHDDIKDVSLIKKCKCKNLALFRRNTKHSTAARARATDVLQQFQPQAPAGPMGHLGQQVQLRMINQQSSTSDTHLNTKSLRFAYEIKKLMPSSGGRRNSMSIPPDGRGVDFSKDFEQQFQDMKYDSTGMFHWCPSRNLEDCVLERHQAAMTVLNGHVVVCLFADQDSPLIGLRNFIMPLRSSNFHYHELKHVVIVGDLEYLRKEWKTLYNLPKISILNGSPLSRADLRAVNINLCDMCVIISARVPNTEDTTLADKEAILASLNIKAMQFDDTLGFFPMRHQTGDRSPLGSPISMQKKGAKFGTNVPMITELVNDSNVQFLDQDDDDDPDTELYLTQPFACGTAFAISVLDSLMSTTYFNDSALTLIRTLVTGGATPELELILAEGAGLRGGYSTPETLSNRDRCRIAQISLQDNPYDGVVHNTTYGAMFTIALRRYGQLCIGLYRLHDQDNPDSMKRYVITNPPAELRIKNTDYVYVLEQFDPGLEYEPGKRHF
row,SMILES,EC50 [nM]
1,Cc1nn2c(C(C)C)c(C(=O)N[C@H]3CCOc4ccccc43)cnc2c1-c1c(F)cc(F)cc1F [Example 236],2
2,Cc1nn2c(N3CCOCC3)c(C(=O)N[C@H]3CCOc4ccccc43)cnc2c1-c1cc(Cl)cc(Cl)c1 [Example 516],5.01
3,Cc1nn2c(C(C)C)c(C(=O)N[C@H]3CCOc4ccccc43)cnc2c1-c1c(F)cccc1F [Example 96],3.98
4,Cc1nn2c(C(C)C)c(C(=O)N[C@H]3CCCc4ccccc43)cnc2c1-c1cc(Cl)c(F)c(Cl)c1 [Example 128],12.6
5,Cc1nn2c(C3CC3)c(C(=O)N[C@H]3CCOc4ccccc43)cnc2c1-c1cc(Cl)cc(Cl)c1Cl [Example 538],0.316
6,Cc1nn2c(C(C)C)c(C(=O)N[C@H]3CCOc4ccccc43)cnc2c1-c1ccc(F)c(F)c1F [Example 166],1.58
7,Cc1nn2c(C(C)C)c(C(=O)N[C@H]3CCOc4ccccc43)cnc2c1-c1c(F)cc(Cl)cc1F [Example 246],6.31
8,Cc1nn2c(C3CC3)c(C(=O)N[C@H]3CCOc4ccccc43)cnc2c1-c1ccc(F)cc1Cl [Example 475],2
9,COc1cc(-c2c(C)nn3c(C(C)C)c(C(=O)N[C@H]4CCOc5ccccc54)cnc23)cc(F)c1F [Example 241],6.31
10,Cc1nn2c(C(C)C)c(C(=O)N[C@H]3CCOc4ccccc43)cnc2c1-c1ncc(Cl)cc1Cl [Example 208],1.58
11,COc1c(F)ccc(-c2c(C)nn3c(N4CCOCC4)c(C(=O)N[C@H]4CCOc5ccccc54)cnc23)c1F [Example 533],1.26
12,Cc1nn2c(C(C)C)c(C(=O)N[C@H]3CCOc4ccccc43)cnc2c1-c1ccc(F)c2c1OCO2 [Example 263],1.58
13,Cc1nn2c(C(C)C)c(C(=O)N[C@H]3CCc4ccccc43)cnc2c1-c1ncc(Cl)cc1Cl [Example 209],1.26
